# Source: PMC11053447, “Human ABC and SLC Transporters: The Culprit Responsible for Unspecific PSMA-617 Uptake?” (Pharmaceuticals, 2024)
# Tests used:
# [1] = target: T1, human OAT1 (Homo sapiens, UniProt Q4U2R8); assay: SLC transporter substrate assay, HEK293-OAT1-LV vs control HEK293-Mock-B-LV cells; settings: 20 min
# T1 sequence (Q4U2R8 1-563): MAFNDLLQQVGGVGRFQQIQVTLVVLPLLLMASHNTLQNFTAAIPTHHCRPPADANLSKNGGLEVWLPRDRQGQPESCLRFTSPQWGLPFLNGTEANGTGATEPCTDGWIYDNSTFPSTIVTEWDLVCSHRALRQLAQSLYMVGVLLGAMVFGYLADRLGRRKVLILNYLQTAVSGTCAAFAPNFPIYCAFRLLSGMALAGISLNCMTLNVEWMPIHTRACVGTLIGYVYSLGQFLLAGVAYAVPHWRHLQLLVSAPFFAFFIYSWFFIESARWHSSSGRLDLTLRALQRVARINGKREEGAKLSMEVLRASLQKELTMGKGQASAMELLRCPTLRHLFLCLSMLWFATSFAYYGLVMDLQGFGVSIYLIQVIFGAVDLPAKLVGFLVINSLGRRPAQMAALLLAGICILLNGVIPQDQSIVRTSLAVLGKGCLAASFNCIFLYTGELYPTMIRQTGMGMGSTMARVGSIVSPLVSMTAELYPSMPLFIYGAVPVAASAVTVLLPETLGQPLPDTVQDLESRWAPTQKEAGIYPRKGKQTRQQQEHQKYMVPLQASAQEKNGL
# [2] = target: T2, human OAT3 (Homo sapiens, UniProt Q8TCC7); assay: SLC transporter substrate assay, HEK293-OAT3-LV vs control HEK293-Mock-LV cells; settings: 20 min
# T2 sequence (Q8TCC7 1-542): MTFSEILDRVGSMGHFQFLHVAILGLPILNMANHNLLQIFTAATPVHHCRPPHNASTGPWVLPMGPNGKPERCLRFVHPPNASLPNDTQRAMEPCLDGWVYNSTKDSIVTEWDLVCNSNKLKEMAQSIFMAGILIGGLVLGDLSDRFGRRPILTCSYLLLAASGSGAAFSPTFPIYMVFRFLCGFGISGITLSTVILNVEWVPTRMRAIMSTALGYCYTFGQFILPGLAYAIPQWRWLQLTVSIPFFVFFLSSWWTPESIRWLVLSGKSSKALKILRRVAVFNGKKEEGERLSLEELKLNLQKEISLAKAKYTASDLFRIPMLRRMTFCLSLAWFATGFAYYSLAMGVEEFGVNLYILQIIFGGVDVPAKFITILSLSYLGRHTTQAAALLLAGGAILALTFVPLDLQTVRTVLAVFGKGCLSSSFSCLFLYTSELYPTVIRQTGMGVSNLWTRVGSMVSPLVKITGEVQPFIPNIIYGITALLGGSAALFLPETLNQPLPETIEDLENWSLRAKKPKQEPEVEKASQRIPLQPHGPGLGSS
# [3] = 0.03 µM nominal + Probenecid 300 µM
# [4] = 0.30 µM nominal + Probenecid 300 µM
# [5] = absence and presence of probenecid
# [6] = 0.03 µM nominal + Probenecid 500 µM
# [7] = 0.30 µM nominal + Probenecid 500 µM
smiles,measurement,setting,value
"[3H]C(c1ccc2ccccc2c1)C([3H])(NC(=O)C1CCC(CNC(=O)CN2CCN(CC(=O)[O-])CCN(CC(=O)[O-])CCN(CC(=O)[O-])CC2)CC1)C(=O)NCCCCC(NC(=O)NC(CCC(=O)O)C(=O)O)C(=O)O.[Lu+3] (stereo not drawn) [([α,β-^3H]Nal)Lu-PSMA-617]",Accumulation in OAT1 transporter expressing cells,[1]; [3],0.04 ± 0.00 pmol/mg protein
same,Accumulation in control cells,[1]; [3],0.03 ± 0.00 pmol/mg protein
same,"Accumulation, active transport",[1]; [3],0.00 ± 0.00 pmol/mg protein
same,Fold accumulation,[1]; [3],1.10
same,Accumulation in OAT1 transporter expressing cells,"[1]; 0.03 µM nominal, no inhibitor",0.06 ± 0.01 pmol/mg protein
same,Accumulation in control cells,"[1]; 0.03 µM nominal, no inhibitor",0.05 ± 0.01 pmol/mg protein
same,"Accumulation, active transport","[1]; 0.03 µM nominal, no inhibitor",0.01 ± 0.01 pmol/mg protein
same,Fold accumulation,"[1]; 0.03 µM nominal, no inhibitor",1.17
same,Accumulation in OAT1 transporter expressing cells,[1]; [4],0.62 ± 0.13 pmol/mg protein
same,Accumulation in control cells,[1]; [4],0.44 ± 0.10 pmol/mg protein
same,"Accumulation, active transport",[1]; [4],0.18 ± 0.16 pmol/mg protein
same,Fold accumulation,[1]; [4],1.42
same,Accumulation in OAT1 transporter expressing cells,"[1]; 0.30 µM nominal, no inhibitor",0.36 ± 0.02 pmol/mg protein
same,Accumulation in control cells,"[1]; 0.30 µM nominal, no inhibitor",0.34 ± 0.06 pmol/mg protein
same,"Accumulation, active transport","[1]; 0.30 µM nominal, no inhibitor",0.01 ± 0.06 pmol/mg protein
same,Fold accumulation,"[1]; 0.30 µM nominal, no inhibitor",1.04
same,"Max. transporter-specific fold accumulation, without inhibitor",[1]; 0.03 µM,1.17
same,Uptake via transporter (OAT1),[1]; [5],not taken up
same,"Max. transporter-specific fold accumulation, with inhibitor","[1]; Probenecid, 0.03 µM",1.10
same,Accumulation in OAT3 transporter expressing cells,[2]; [6],0.05 ± 0.01 pmol/mg protein
same,Accumulation in control cells,[2]; [6],0.03 ± 0.01 pmol/mg protein
same,"Accumulation, active transport",[2]; [6],0.02 ± 0.01 pmol/mg protein
same,Fold accumulation,[2]; [6],1.56
same,Accumulation in OAT3 transporter expressing cells,"[2]; 0.03 µM nominal, no inhibitor",0.07 ± 0.01 pmol/mg protein
same,Accumulation in control cells,"[2]; 0.03 µM nominal, no inhibitor",0.03 ± 0.00 pmol/mg protein
same,"Accumulation, active transport","[2]; 0.03 µM nominal, no inhibitor",0.03 ± 0.01 pmol/mg protein
same,Fold accumulation,"[2]; 0.03 µM nominal, no inhibitor",1.96
same,Accumulation in OAT3 transporter expressing cells,[2]; [7],0.74 ± 0.15 pmol/mg protein
same,Accumulation in control cells,[2]; [7],0.29 ± 0.07 pmol/mg protein
same,"Accumulation, active transport",[2]; [7],0.45 ± 0.17 pmol/mg protein
same,Fold accumulation,[2]; [7],2.52
same,Accumulation in OAT3 transporter expressing cells,"[2]; 0.30 µM nominal, no inhibitor",0.60 ± 0.13 pmol/mg protein
same,Accumulation in control cells,"[2]; 0.30 µM nominal, no inhibitor",0.29 ± 0.06 pmol/mg protein
same,"Accumulation, active transport","[2]; 0.30 µM nominal, no inhibitor",0.31 ± 0.14 pmol/mg protein
same,Fold accumulation,"[2]; 0.30 µM nominal, no inhibitor",2.09
same,"Max. transporter-specific fold accumulation, without inhibitor",[2]; 0.3 µM,2.09
same,Uptake via transporter (OAT3),[2]; [5],not taken up
same,"Max. transporter-specific fold accumulation, with inhibitor","[2]; Probenecid, 0.3 µM",2.52
